One data set relates to HIV-1 IIIB. In words: MAGI-CXCR4 HIV-1 IIIB antiviral assay (β-galactosidase reporter). The following applies: for inhibition at 1 µM: MAGI, read-out: MAGI HIV IIIB % Inhibition at 1 uM, 1 uM compound; for MAGI HIV IIIB % Inhibition at 1 uM: 1 uM compound; for T.I. (TC50/IC50): therapeutic index, MAGI assay. The source says:
Example 2: MAGI-CXCR4 HIV-1 IIIB Assay Procedure
(§1) MAGI-CXC4 cells (obtained from the NIH AIDS Research and Reference Reagent Program) are passed into T-75 flasks prior to use in the antiviral assay. MAGI-CXCR4 cells are derived from HeLa-CD4-LTR-β-gal cells. The cells have been engineered to express high levels of CD4 and […] and contain one copy of the HIV-1 LTR promoter driving expression of the β-galactosidase gene upon HIV-1 Tat transactivation. On the day preceding the assay, the cells are plated at 1.0×10^4 per well and incubated at 37° C. overnight. Total cell and viability quantification is performed using a hemacytometer and trypan blue exclusion.
The virus used for these tests is the […](CXCR4-tropic strain HIV-1NL4-3 is also available for use). This virus was obtained from the NIH AIDS Research and Reference Reagent Program and was grown in Ghost Hi5/MAGI-CXCR4 co-cultures for the production of stock virus pools. For each assay, a pre-titered aliquot of virus is removed from the freezer (−80° C.) and allowed to thaw slowly to room temperature in a biological safety cabinet. The virus is re-suspended and diluted into tissue culture medium such that the amount of virus added to each well in a volume of […] is approximately ten TCID50/well (˜0.001 TCID50/cell).
(§2) Compounds are evaluated at one or two concentrations (e.g., for initial screening) or in dose-response at six concentrations (triplicate wells/concentration). On the day of assay setup, compound dilutions are prepared at two-times (2×) the final required concentrations. Media used for plating the cells the day before assay setup is aspirated from the plates and replaced with 50 μL of the 2× compounds, followed by the addition of 50 μL of virus, which dilutes the compounds to the final 1× concentrations. Cell control wells (cells only) and virus control wells (cells plus virus) are included on each assay plate. Identical uninfected assay plates (virus replaced with media) are prepared for parallel cytotoxicity testing. The cultures are incubated for 48 hours or 6 days (depending on compound or client requirements) after which antiviral efficacy is measured as the inhibition of β-galactosidase reporter expression and cytotoxicity is monitored by MTS staining.
A chemiluminescent endpoint is used to determine the extent of β-galactosidase expression as a measure of HIV-1 infection of the cells. Once HIV-1 has attached and entered the MAGI-CXCR4 cells, HIV-1 Tat transactivates the LTR dependent β-galactosidase enzyme to express higher than normal levels of β-galactosidase. Thus there is a direct relationship between the level of HIV-1 infection and the level of β-galactosidase detected in the cells. At 48 hours post infection, plates are aspirated and PBS is added to each well. Gal-screen reagent (Tropix, Bedford, Mass.) is then added per the manufacturer's instructions for chemiluminescent detection of β-galactosidase activity and incubated at room temperature for 90 minutes. The resulting chemiluminescence signal is then read using a Microbeta Trilux luminescence reader (PerkinElmer/Wallac).
(§3) At assay termination, the cytotoxicity assay plates are stained with the soluble tetrazolium-based dye MTS (CellTiter Reagent, Promega) to determine cell viability and quantify compound toxicity. […] At termination of the assay, 15 μL of MTS reagent is added per well. The microtiter plates are then incubated 1.5-2 hrs at 37° C.; the incubation interval was chosen based on empirically determined times for optimal dye reduction. The plates are read spectrophotometrically at 490/650 nm with a Molecular Devices Vmax plate reader. Percent inhibition of virus replication and percent cell viability at each concentration are calculated using an in-house computer program.

Another data set has as its system MAGI-CXCR4 cells. In words: in vitro. As for the experimental part: as §1, §2, §3
A short description of data set [1]: in vitro. The conditions noted are these: human. As for the experimental part: as §1, §2, §3
Another data set relates to HIV IIIB virus. In words: Peripheral blood mononuclear cell HIV IIIB assay. The conditions noted are these: for IC50: read-out: PBMC-HIV IC50; for IC90: read-out: PBMC-HIV IC90; for T.I. (TC50/IC50): therapeutic index. As for the experimental part:
(§4) To test efficacy of selected compounds, peripheral mononuclear cell assays are performed. Cells are infected for 6 days with live HIV IIIB virus and PBM cells are run in parallel for cytotoxicity testing, with or without selected agents. Efficacy of compounds as antagonists of the sdf-1 ligand to CXCR4 receptors was determined in I^125 labeled sdf-1 displacement assays from CXCR4-expressing CEM cells are performed.

The nature of data set [2]: in vitro. The following applies: human. The method, then:
as §4
The source holds these as a separate data set.

For another data set, the system named is PBM cells. In words: in vitro. The method, then:
as §4

[3] abbreviates: Human immunodeficiency virus 1, IIIB, MAGI-CXCR4 cells.
Where [4] appears, read: read-out: HIV IC90, MAGI-CXCR4 cells, further testing.
Setting [5] is: Human immunodeficiency virus 1, IIIB, read-out: HIV IC90, MAGI-CXCR4 cells, further testing.
The mark [6] stands for this setting: Human immunodeficiency virus 1, IIIB, PBMC, 144 h.
Setting [7] is: PBMC infected 6 days with live HIV IIIB.
[8] abbreviates: read-out: HIV IC50, MAGI-CXCR4 cells, further testing.

Read-outs that look alike come from different tables or passages of the source.

The values below come from patent US10016408B2, “Chemokine CXCR4 receptor modulators and uses related thereto” (EMORY UNIVERSITY, priority 2010, dated 2018).

Turning to `CN(C[C@@H]1CC(OCCCN)CN1C(=O)OCc1ccccc1)C1CCCc2cccnc21` (stereo partly drawn), the inhibition at 1 µM in the data set with HIV-1 IIIB (setting [3]) amounted to 0%.
Turning to `NCCCCN(CC1CN(Cc2ccccc2)CCN1)C1CCCc2cccnc21` (stereo not drawn) [Compound 8], the “MAGI HIV IIIB % Inhibition at 1 uM” value with HIV-1 IIIB (MAGI-CXCR4 cells) was 95%. Further, the IC90 in the data set on HIV-1 IIIB (setting [4]) amounted to 720 nM. Also, the “T.I. (TC50/IC50)” value in the data set with HIV-1 IIIB is listed as greater than 67. Further, the CC50 in the data set with MAGI-CXCR4 cells (human) was greater than 10000 nM.
On to `NCCCCN(C[C@@H]1CC(OCc2ccccc2)CN1)C1CCCc2cccnc21` (stereo partly drawn), for which the inhibition at 1 µM with HIV-1 IIIB (setting [3]) stood at 0%.
Consider `c1cc(CN2CCCNCCNCCCNCC2)ccc1CN1CCCNCCNCCCNCC1` [AMD3100, reference compound], for which the IC50 in the data set with HIV-1 IIIB (Human immunodeficiency virus 1, IIIB, read-out: HIV IC50, MAGI-CXCR4 cells, further testing) came out at 2 nM; in the data set on HIV IIIB virus (setting [6]), 32 nM. Also, the IC90 in the data set on HIV-1 IIIB (setting [5]) was 7 nM; in the data set with HIV IIIB virus (setting [6]), 134 nM. Also, the “T.I. (TC50/IC50)” value is greater than 5000 in the data set on HIV-1 IIIB and greater than 150 in the data set on HIV IIIB virus (PBMC). Besides, the CC50 in the data set “in vitro [1]” is greater than 10000 nM. The CC50 at 6 days in “in vitro [2]” is greater than 5000 nM.
`NCCCCN(C[C@@H]1CC(c2ccccc2)CN1)C1CCCc2cccnc21` (stereo partly drawn): the inhibition at 1 µM in the data set on HIV-1 IIIB (setting [3]) is 20%.
Regarding Maraviroc, in the data set on HIV IIIB virus (setting [7]), the IC50 is greater than 2000 nM and the concentration for an effect of 90% (IC90) was greater than 2000 nM.
`Cc1ccc(-c2ccc3c(c2)C=C(C(=O)Nc2ccc(C[N+](C)(C)C4CCOCC4)cc2)CCC3)cc1` [TAK779, reference compound]: the IC50 with HIV-1 IIIB (setting [8]) is greater than 10000 nM. Also, the IC90 in the data set with HIV-1 IIIB (setting [4]) was greater than 10000 nM. In addition, the CC50 in the data set on MAGI-CXCR4 cells (read-out: TC50, MTS staining, uninfected MAGI-CXCR4 cells) is greater than 10000 nM.
As to `NCCCCN(CC1CCc2ccccc2N1)C1CCCc2cccnc21` (stereo not drawn) [drawing 41], in the data set on HIV-1 IIIB (MAGI-CXCR4 cells), the “MAGI HIV IIIB % Inhibition at 1 uM” value came to 31% @ 1 uM.
Consider `NCCCCN(C[C@@H]1CC(OCCCN)CN1C(=O)OCc1ccccc1)C1CCCc2cccnc21` (stereo partly drawn), for which the inhibition at 1 µM with HIV-1 IIIB (setting [3]) came out at 0%.
For `NCCCCN(CC1CN(Cc2ccccc2)CCN1)C1CCCc2cccnc21` (stereo not drawn) [Compound 9], the inhibition at 1 µM with HIV-1 IIIB (setting [3]) was 92%. In addition, in the data set on HIV-1 IIIB (setting [5]), the IC90 was determined as 440 nM. In addition, the concentration for half-maximal inhibition (IC50) in the data set with HIV-1 IIIB (setting [8]) is 30 nM; in the data set with HIV-1 IIIB (read-out: MAGI HIV IIIB IC50, MAGI-CXCR4 cells), 30 nM. The “T.I. (TC50/IC50)” value with HIV-1 IIIB is given as greater than 333. For the same compound, the CC50 in the data set “in vitro [1]” was greater than 10000 nM.
With `CN(CC1Cc2ccccc2CN1)C1CCCc2cccnc21` (stereo not drawn), the inhibition at 1 µM in the data set with HIV-1 IIIB (setting [3]) is 30%.
The same measure, in the same setting: the figure for `NCCCCN(CC1CCc2ccccc2N1)C1CCCc2cccnc21` (stereo not drawn) [drawing 40] is 42%.
Take `Cc1cn([C@H]2C[C@H](N=[N+]=[N-])[C@@H](CO)O2)c(=O)[nH]c1=O` [AZT]: in the data set on HIV IIIB virus (setting [7]), the IC50 is 4 nM and the IC90 is 70 nM. In the data set with HIV IIIB virus (PBMC), the “T.I. (TC50/IC50)” value is greater than 240. Moreover, the CC50 in the data set on PBM cells is greater than 1000 nM.
Turning to `O=C1c2ccccc2C(=O)N1CCCCN(CC1Cc2ccccc2CN1)C1CCCc2cccnc21` (stereo not drawn), the inhibition at 1 µM with HIV-1 IIIB (setting [3]) worked out at 25%.
`CN(CC1CN(Cc2ccccc2)CCN1)C1CCCc2cccnc21` (stereo not drawn): the inhibition at 1 µM in the data set with HIV-1 IIIB (setting [3]) came to 41%.
